Measurements from paper PMC13372822 (The EMBO Journal, 2026).
Positions count from the first letter of the chain named.

Tests used:
HCAR1 = target: T1, HCAR1 (Homo sapiens, UniProt Q9BXC0); experiment: Calcium mobilization assay, HCAR1 in HEK293 stably expressing Gα16; type: cell-based; settings: in words; related receptor
T1 construct: expressed in transfected cells; host or cells: HEK293 stably expressing Gα16
Procedure: (§6) HEK293 cells were obtained from ATCC (Manassas, VA, USA) and cultured in DMEM supplemented with 10% (v/v) FBS, 100 mg/L penicillin, and 100 mg/L streptomycin in 5% CO2 at 37 °C. For transient transfection, ~2.5 × 10^6 cells were mixed with 2 µg plasmids in 200 µL transfection buffer, and electroporation was carried out with a Scientz-2C electroporation apparatus (Scientz Biotech, Ningbo, China). The experiments were carried out 24 h after transfection. HEK293 cell lines stably expressing Gα16 were constructed by our laboratory.
(§7) For OXGR1, plasmids were transfected into HEK293 (other receptors were transfected into HEK293 stably expressing Gα16) and seeded at a density of 4 × 10^4 per well into 96-well culture plates and incubated for 24 h at 37 °C in 5% CO2. The next day, Cells were incubated with 2 μM/L Fluo-4 AM in HBSS supplemented with 5.6 mM/L D-glucose and 250 μM/L sulfinpyrazone at 37 °C for 45 min. […] Three independent measurements were repeated, i.e., three different transfections, with three technical replicates performed for each experiment. EC50 and Emax values for each curve were calculated by Prism 8.0 software (GraphPad Software).

[1] = target: T2, SUCR1 mutants (variant named in the endpoint) (Homo sapiens, UniProt Q9BXA5, I157M); experiment: Calcium mobilization assay, SUCR1 mutants in HEK293 stably expressing Gα16; type: cell-based;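 for Emax: percent of the maximal response to succinate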
T2 construct: The full-length human SUCR1 and mutations were fused after the HA signal peptide and Flag tag; HA signal peptide (N); Flag (N); expressed in transfected cells; host or cells: HEK293 stably expressing Gα16 (pcDNA6.0, transient electroporation)
T2 sequence (Q9BXA5 1-334 I157M): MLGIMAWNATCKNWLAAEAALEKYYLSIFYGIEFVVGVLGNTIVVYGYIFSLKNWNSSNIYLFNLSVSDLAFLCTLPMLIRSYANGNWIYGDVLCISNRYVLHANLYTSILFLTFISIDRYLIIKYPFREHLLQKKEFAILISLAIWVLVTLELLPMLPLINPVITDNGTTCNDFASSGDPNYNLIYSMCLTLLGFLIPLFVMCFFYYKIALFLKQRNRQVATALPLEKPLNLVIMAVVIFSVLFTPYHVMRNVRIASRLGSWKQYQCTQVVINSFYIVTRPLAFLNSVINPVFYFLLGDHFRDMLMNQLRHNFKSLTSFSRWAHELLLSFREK
Procedure: (§8) The full-length human SUCR1 and mutations were fused after the HA signal peptide and Flag tag. The constructs were cloned into pcDNA6.0 vector for HEK293 system.
as §6, §7

[2] = test system: SUCR1 mutants (variant named in the endpoint); experiment: as above; type: cell-based, human; settings: in words
Procedure: as §8, §6, §7

[3] = target: T3, SUCR1 mutants (variant named in the endpoint) (Homo sapiens, UniProt Q9BXA5, Y248F); experiment: as above; type: cell-based
T3 construct: The full-length human SUCR1 and mutations were fused after the HA signal peptide and Flag tag; HA signal peptide (N); Flag (N); expressed in transfected cells; host or cells: HEK293 stably expressing Gα16 (pcDNA6.0, transient electroporation)
T3 sequence (Q9BXA5 1-334 Y248F): T2 sequence (Q9BXA5 1-334 I157M) with M157I, Y248F
Procedure: as §8, §6, §7

HCAR2 = target: T4, HCAR2 (Homo sapiens, UniProt Q8TDS4); experiment: Calcium mobilization assay, HCAR2 in HEK293 stably expressing Gα16; type: cell-based; settings: in words; related receptor
T4 construct: expressed in transfected cells; host or cells: HEK293 stably expressing Gα16
Procedure: as §6, §7

OXGR1 [4] = target: T5, OXGR1 (Homo sapiens, UniProt Q96P68); experiment: cAMP assay, Gi pathway (OXGR1-Gi-cAMP Assay); type: cell-based; parameters: The full-length human OXGR1 and mutations were fused after the HA signal peptide and Flag tag; HA signal peptide (N); Flag (N); expressed in transfected cells; host or cells: HEK293 (pcDNA3.0, transient electroporation); settings: OXGR1 WT
Procedure: In brief, cells expressing OXGR1 were seeded in a plate at a density of 1 × 10^6 cells/well and cultured overnight. After 24 h culture, cells were harvested and re-suspended in DMEM containing 500 µM IBMX at a density of 2 × 10^5 cells/mL. Then, cells were plated onto 384-well assay plates at a density of 1000 cells/5 µL/well. Another 5 µL buffer containing compounds at various concentrations was added to the cells, and the incubation lasted for 30 min at 37 °C. Intracellular cAMP level was tested by a LANCE Ultra cAMP kit (PerkinElmer, TRF0264) and EnVision multiplate reader according to the manufacturer’s instructions.

OXGR1 [5] = target: T5, OXGR1; experiment: Immunofluorescence assay of OXGR1 internalization; type: cell-based; parameters: The full-length human OXGR1 and mutations were fused after the HA signal peptide and Flag tag; HA; expressed in transfected cells; host or cells: HEK293, transient; settings: 300 μM AKG, 0 or 30 min at 37°C
Procedure: (§1) Figure. R2 | Effect of L2997x50P mutant on activation and internalization of OXGR1. […]
(§2) responses. Responses were normalized to 100% for wild-type. Data are mean ± S.E.M. from three independent experiments (n = 3), with three technical replicates performed for each […]
(§3) experiment. […] HEK293 cells transiently […]
(§4) transfected with HA-tagged OXGR1 -WT or L299 7x50P mutant, were incubated with 300 μM […]
(§5) OXGR1 were stained with anti-HA (green). Cell nuclei were (1 picture or pasted object on this page, not shown here)

OXGR1 [6] = target: T6, OXGR1 (Homo sapiens, UniProt Q96P68, L299P); experiment: Immunofluorescence assay of OXGR1 internalization; type: cell-based; settings: 300 μM AKG, 0 or 30 min at 37°C
T6 construct: The full-length human OXGR1 and mutations were fused after the HA signal peptide and Flag tag; HA; expressed in transfected cells; host or cells: HEK293, transient
Procedure: as §1, §2, §3, §4, §5

[7] = target: T7, SUCR1 mutants (variant named in the endpoint) (Homo sapiens, UniProt Q9BXA5, F285A/L102F/Y248F); experiment: Calcium mobilization assay, SUCR1 mutants in HEK293 stably expressing Gα16; type: cell-based; settings: SUCR1 L102F-F285A-Y248F;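 for Emax: percent of the maximal response to succinate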
T7 construct: The full-length human SUCR1 and mutations were fused after the HA signal peptide and Flag tag; HA signal peptide (N); Flag (N); expressed in transfected cells; host or cells: HEK293 stably expressing Gα16 (pcDNA6.0, transient electroporation)
T7 sequence (Q9BXA5 1-334 L102F/Y248F/F285A): T2 sequence (Q9BXA5 1-334 I157M) with L102F, M157I, Y248F, F285A
Procedure: as §8, §6, §7

T1 sequence (Q9BXC0 whole entry, species assumed): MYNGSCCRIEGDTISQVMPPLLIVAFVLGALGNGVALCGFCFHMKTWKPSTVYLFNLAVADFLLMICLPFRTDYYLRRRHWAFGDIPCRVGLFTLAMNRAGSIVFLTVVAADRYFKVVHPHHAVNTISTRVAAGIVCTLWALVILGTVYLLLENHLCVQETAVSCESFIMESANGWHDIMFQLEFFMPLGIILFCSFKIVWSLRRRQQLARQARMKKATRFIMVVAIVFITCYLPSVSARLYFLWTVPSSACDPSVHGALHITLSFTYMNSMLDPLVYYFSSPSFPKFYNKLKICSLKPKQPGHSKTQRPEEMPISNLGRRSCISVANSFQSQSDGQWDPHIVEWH
T4 sequence (Q8TDS4 whole entry): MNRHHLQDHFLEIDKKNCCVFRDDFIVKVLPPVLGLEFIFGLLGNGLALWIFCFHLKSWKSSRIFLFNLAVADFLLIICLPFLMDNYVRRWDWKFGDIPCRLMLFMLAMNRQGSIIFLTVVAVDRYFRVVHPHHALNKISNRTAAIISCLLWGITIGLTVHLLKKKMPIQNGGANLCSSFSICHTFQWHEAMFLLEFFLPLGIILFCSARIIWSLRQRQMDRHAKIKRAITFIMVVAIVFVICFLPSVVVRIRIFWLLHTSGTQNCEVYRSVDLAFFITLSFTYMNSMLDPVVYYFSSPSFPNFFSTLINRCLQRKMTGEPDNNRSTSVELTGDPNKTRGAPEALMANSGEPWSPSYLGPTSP

In the case of `C=C(CC(=O)O)C(=O)O` [ITA, itaconate], the “activation of HCAR1” value (HCAR1) is reported as “no detectable activation”, the Emax ([1]; HEK293, SUCR1 I157M, Emax relative to the SUC) is reported as -0.44 ± 1% and the “ITA activation of SUCR1-L102F, SUCR1-L102F-F285A, SUCR1-L102F-F175L” value [2] is reported as “further enhanced ITA activation in both potency and efficiency”. For the same molecule, the Emax ([3]; HEK293, SUCR1 Y248F, Emax relative to the SUC) was 15 ± 2%, the “activation of HCAR2” value (HCAR2) was “no detectable activation” and the “activation of Gi signaling” value (OXGR1 [4]) was “no detectable activation”.
`O=C(O)CCC(=O)C(=O)O` [AKG, α-ketoglutarate] was tested, and the “internalization of WT-OXGR1” value (OXGR1 [5]) was “internalizes”, the Emax ([1]; HEK293) was 0.43 ± 0.8% and the “internalization of OXGR1 L299P mutant” value (OXGR1 [6]) was “remains at the plasma membrane”. For the same molecule, the “activation of Gi signaling” value (OXGR1 [4]) was “no detectable activation”.
`O=C(O)CCC(=O)O` [SUC, succinate] gave an EC50 ([3]; SUCR1 Y248F) of 0.81 ± 0.09 mM and an EC50 [7] of 2.2 ± 0.22 mM.
